# According to ChEMBL document CHEMBL6134844, “Development of Next-Generation Antimalarial Acridones with Radical Cure Potential” (J Med Chem, 2025):
# Key:
# [1] = Selectivity index, ratio of CC50 for Macaca mulatta hepatocytes to IC50 for antiplasmodial activity against schizont Plasmodium cynomolgi B strain infected in Macaca mulatta hepatocytes incubated with sporozoite containing salivary gland homogenate obtained from dissected Anopheles dirus mosquitoes (infected with Plasmodium cynomolgi B strain) treatment started on day 4 post infection and continued daily for 4 days into fresh changed media until day 8 assessed as Liver stage (LS) activity by measuring prophylactic mode by immunofluorescent staining analysis; assay type: toxicity, cell-based; conditions: rhesus monkey, read-out: Selectivity Index
# [2] = Selectivity index, ratio of CC50 for Macaca mulatta hepatocytes to IC50 for antiplasmodial activity against schizont Plasmodium cynomolgi B strain infected in Macaca mulatta hepatocytes incubated with sporozoite containing salivary gland homogenate obtained from dissected Anopheles dirus mosquitoes (infected with Plasmodium cynomolgi B strain) treatment started on day 4 post infection and continued daily for 4 days into fresh changed media until day 8 assessed as Liver stage (LS) activity by measuring radical cure mode by immunofluorescent staining analysis; assay type: toxicity, cell-based; conditions: rhesus monkey, read-out: Selectivity Index
# Plasmodium falciparum [3] = assay: Ex vivo antiplasmodial activity against clinical isolate Plasmodium falciparum isolated from Ugandan measured after 72 hrs by growth inhibition assay; assay type: functional, organism-based
# Plasmodium falciparum [4] = assay: Antiplasmodial activity against asexual blood-stage (ABS) CQ-sensitive Plasmodium falciparum D6 infected in human erythrocytes assessed as reduction in fluorescence measured after 72 hrs by Malaria SYBR Green I-based Fluorescence (MSF) assay; assay type: functional, organism-based; conditions: D6, Erythrocyte
# [5] = Selectivity index, ratio of CC50 for Macaca mulatta hepatocytes to IC50 for antiplasmodial activity against hypnozoite Plasmodium cynomolgi B strain infected in Macaca mulatta hepatocytes incubated with sporozoite containing salivary gland homogenate obtained from dissected Anopheles dirus mosquitoes (infected with Plasmodium cynomolgi B strain) treatment started on day 4 post infection and continued daily for 4 days into fresh changed media until day 8 assessed as Liver stage (LS) activity by measuring radical cure mode by immunofluorescent staining analysis; assay type: toxicity, cell-based; conditions: rhesus monkey, read-out: Selectivity Index
# Plasmodium falciparum [6] = assay: Antiplasmodial activity against asexual blood-stage (ABS) MDR Plasmodium falciparum Dd2 infected in human erythrocytes assessed as reduction in fluorescence measured after 72 hrs by Malaria SYBR Green I-based Fluorescence (MSF) assay; assay type: functional, organism-based; conditions: Dd2, Erythrocyte
# [7] = AUClast in male ICR-CD1 mouse liver at 80 mg/kg, po; assay type: ADME, organism-based
# Plasmodium berghei [8] = assay: In vivo antiplasmodial activity against luciferase expressing liver stage Plasmodium berghei ANKA MRA-868 sporozoites infected in Albino C57BL/6 mouse model assessed as protection at 10 mg/kg, po daily measured 24 to 72 hrs by real-time In Vivo Imaging System (IVIS); assay type: functional; conditions: time lower 24.0 hrs, time upper […]
# HepG2 = assay: Cytotoxicity against human HepG2 cells assessed as cell viability measured after 48 hrs by MTT assay; assay type: functional, cell-based; conditions: HepG2, 48 h
# [9] = Apparent oral clearance in male ICR-CD1 mouse liver at 80 mg/kg, po; assay type: ADME, organism-based
# [10] = AUC(0 to infinity) in male ICR-CD1 mouse liver at 80 mg/kg, po; assay type: ADME, organism-based
# [11] = Cmax in male ICR-CD1 mouse liver at 80 mg/kg, po; assay type: ADME, organism-based
# [12] = Tmax in male ICR-CD1 mouse plasma at 80 mg/kg, po; assay type: ADME, organism-based
# Plasmodium falciparum [13] = assay: Antiplasmodial activity against asexual blood-stage (ABS) ATV-resistant clinical isolate Plasmodium falciparum Tm90-C2B infected in human erythrocytes assessed as reduction in fluorescence measured after 72 hrs by Malaria SYBR Green I-based Fluorescence (MSF) assay; assay type: functional, organism-based; conditions: Erythrocyte
# [14] = Selectivity index, ratio of CC50 for Macaca mulatta hepatocytes to IC50 for antiplasmodial activity against hypnozoite Plasmodium cynomolgi B strain infected in Macaca mulatta hepatocytes incubated with sporozoite containing salivary gland homogenate obtained from dissected Anopheles dirus mosquitoes (infected with Plasmodium cynomolgi B strain) treatment started on day 4 post infection and continued daily for 4 days into fresh changed media until day 8 assessed as Liver stage (LS) activity by measuring prophylactic mode by immunofluorescent staining analysis; assay type: toxicity, cell-based; conditions: rhesus monkey, read-out: Selectivity Index
# Plasmodium cynomolgi [15] = assay: Antiplasmodial activity against schizont Plasmodium cynomolgi B strain infected in Macaca mulatta hepatocytes incubated with sporozoite containing salivary gland homogenate obtained from dissected Anopheles dirus mosquitoes (infected with Plasmodium cynomolgi B strain) treatment started on day 4 post infection and continued daily for 4 days into fresh changed media until day 8 assessed as Liver stage (LS) activity by measuring radical cure mode by immunofluorescent staining analysis; assay type: functional, organism-based; conditions: Hepatocyte
# [16] = AUCextrap in male ICR-CD1 mouse liver at 80 mg/kg, po; assay type: ADME, organism-based
# Plasmodium cynomolgi [17] = assay: Antiplasmodial activity against hypnozoite Plasmodium cynomolgi B strain infected in Macaca mulatta hepatocytes incubated with sporozoite containing salivary gland homogenate obtained from dissected Anopheles dirus mosquitoes (infected with Plasmodium cynomolgi B strain) treatment started on day 4 post infection and continued daily for 4 days into fresh changed media until day 8 assessed as Liver stage (LS) activity by measuring radical cure mode by immunofluorescent staining analysis; assay type: functional, organism-based; conditions: Hepatocyte
# [18] = Half life in male ICR-CD1 mouse liver at 80 mg/kg, po; assay type: ADME, organism-based
# Plasmodium cynomolgi [19] = assay: Antiplasmodial activity against schizont Plasmodium cynomolgi B strain infected in Macaca mulatta hepatocytes incubated with sporozoite containing salivary gland homogenate obtained from dissected Anopheles dirus mosquitoes (infected with Plasmodium cynomolgi B strain) treatment started on day 4 post infection and continued daily for 4 days into fresh changed media until day 8 assessed as Liver stage (LS) activity by measuring prophylactic mode by immunofluorescent staining analysis; assay type: functional, organism-based; conditions: Hepatocyte
# [20] = Toxicity in CF1 mouse infected with asexual blood-stage (ABS) Plasmodium yoelii MRA-428 assessed as clinical toxicity at 0.3 to 30 mg/kg, po treated 24 hrs post infection measured after 4 days; assay type: organism-based; conditions: in vivo, dose 0.3-30 mg/kg
# Hepatocyte = assay: Cytotoxicity against Macaca mulatta hepatocytes assessed as cell viability measured after 48 hrs by MTT assay; assay type: toxicity, cell-based; conditions: rhesus monkey, 48 h
# [21] = AUCextrap in male ICR-CD1 mouse plasma at 80 mg/kg, po; assay type: ADME, organism-based
# Plasmodium berghei [22] = assay: In vivo antiplasmodial activity against luciferase expressing liver stage Plasmodium berghei ANKA MRA-868 sporozoites infected in Albino C57BL/6 mouse model assessed as protection at 4 mg/kg, po daily measured 24 to 72 hrs by real-time In Vivo Imaging System (IVIS); assay type: functional, organism-based; conditions: time lower 24.0 hrs, time upper […]
# [23] = mouse, microsomes, 1 h
# Plasmodium yoelii = assay: In vivo antiplasmodial activity against asexual blood-stage (ABS) Plasmodium yoelii MRA-428 infected in 4-day suppression CF1 mouse model assessed as reduction in parasitemia treated 24 hrs post infection daily measured on day 4; assay type: functional
# [24] = Toxicity in CF1 mouse infected with asexual blood-stage (ABS) Plasmodium yoelii MRA-428 assessed as behavioural change at 0.3 to 30 mg/kg, po treated 24 hrs post infection measured after 4 days; assay type: organism-based; conditions: in vivo, dose 0.3-30 mg/kg
# Plasmodium cynomolgi [25] = assay: Antiplasmodial activity against hypnozoite Plasmodium cynomolgi B strain infected in Macaca mulatta hepatocytes incubated with sporozoite containing salivary gland homogenate obtained from dissected Anopheles dirus mosquitoes (infected with Plasmodium cynomolgi B strain) treatment started on day 4 post infection and continued daily for 4 days into fresh changed media until day 8 assessed as Liver stage (LS) activity by measuring prophylactic mode by immunofluorescent staining analysis; assay type: functional, organism-based; conditions: Hepatocyte
# [26] = human, microsomes, 1 h
smiles,measurement,setting,value
O=c1c2cc(F)c(Oc3ccc(OC(F)(F)F)cc3)cc2[nH]c2cc(Cl)cc(F)c12,selectivity ratio at 96 h,[1],14.5
same,selectivity ratio at 96 h,[2],1.71
same,IC50,Plasmodium falciparum [3],0.957 nM
same,IC50,Plasmodium falciparum [4],0.00074 nM
same,selectivity ratio at 96 h,[5],1.04
same,IC50,Plasmodium falciparum [6],0.00042 nM
same,AUC(0-t),[7],40000 ng·h/mL
same,Activity,Plasmodium berghei [8],Not active; Out Of 5 - 0 Mouse Cured
same,IC50,HepG2,> 200000 nM
same,CL/F,[9],1.05 mL/min/kg
same,AUC(0-inf),[10],41300 ng·h/mL
same,Cmax,[11],7980 ng/mL
same,Tmax,[12],4 h
same,IC50,Plasmodium falciparum [13],0.475 nM
same,selectivity ratio at 96 h,[14],3.62
same,IC50,Plasmodium cynomolgi [15],340 nM
same,AUC,[16],3.14%
same,IC50,Plasmodium cynomolgi [17],560 nM
same,half-life,[18],20.9 h
same,IC50,Plasmodium cynomolgi [19],40 nM
same,Activity,[20],Non-toxic
same,CC50,Hepatocyte,580 nM
same,AUC,[21],64.6 ng·h/mL
same,Activity,Plasmodium berghei [22],Not active; Out Of 5 - 0 Mouse Cured
same,CLH,[23],16.1 µL/min/mg
same,ED50,Plasmodium yoelii,0.16 mg/kg
same,ED90,Plasmodium yoelii,0.3 mg/kg
same,Activity,[24],Non-toxic
same,IC50,Plasmodium cynomolgi [25],160 nM
same,t1/2,[26],> 1 h
